# Data as given in patent US7825264B2, “Substituted heterocycles, their use as medicament, and pharmaceutical preparations comprising them” (sanofi-aventis, priority 2005, dated 2010).
# Target: T1, Human Kv1.5 channels (Homo sapiens, UniProt P22460)
# T1 construct: expressed in transfected cells; host or cells: Xenopus laevis oocytes injected with RNA synthesized in vitro
# Experiment: Activity on the Kv1.5 channel: two-microelectrode voltage clamp on Xenopus oocytes expressing Kv1.5
# Assay type: cell-based
# Details: human Kv1.5 expressed in Xenopus oocytes, room temperature, Hill equation; read-out: Kv1.5 IC-50
# Procedure: Determination of the Activity on the Kv1.5 Channel
# Human Kv1.5 channels were expressed in xenopus oocytes. For this purpose, firstly oocytes were isolated from Xenopus laevis and defolliculated. Kv1.5-encoding RNA synthesized in vitro was then injected into these oocytes. After Kv1.5 protein expression for 1-7 days, Kv1.5 currents were measured on the oocytes using the two-microelectrode voltage clamp technique. The Kv1.5 channels were in this case usually activated with voltage jumps lasting 500 ms to 0 mV and 40 mV. A solution of the following composition flowed through the bath: NaCl 96 mM, KCl 2 mM, CaCl2 1.8 mM, MgCl2 1 mM, HEPES 5 mM (titrated to pH 7.4 with NaOH). These experiments were carried out at room temperature. The following were employed for data acquisition and analysis: Geneclamp amplifier (Axon Instruments, Foster City, USA) and MacLab D/A converter and software (ADInstruments, Castle Hill, Australia). The substances of the invention were tested by adding them in various concentrations to the bath solution. The effects of the substances were calculated as percent inhibition of the Kv1.5 control current which was obtained when no substance was added to the solution. The data were then extrapolated using the Hill equation in order to determine the inhibitory concentrations IC50 for the respective substances.
# T1 sequence (P22460 whole entry): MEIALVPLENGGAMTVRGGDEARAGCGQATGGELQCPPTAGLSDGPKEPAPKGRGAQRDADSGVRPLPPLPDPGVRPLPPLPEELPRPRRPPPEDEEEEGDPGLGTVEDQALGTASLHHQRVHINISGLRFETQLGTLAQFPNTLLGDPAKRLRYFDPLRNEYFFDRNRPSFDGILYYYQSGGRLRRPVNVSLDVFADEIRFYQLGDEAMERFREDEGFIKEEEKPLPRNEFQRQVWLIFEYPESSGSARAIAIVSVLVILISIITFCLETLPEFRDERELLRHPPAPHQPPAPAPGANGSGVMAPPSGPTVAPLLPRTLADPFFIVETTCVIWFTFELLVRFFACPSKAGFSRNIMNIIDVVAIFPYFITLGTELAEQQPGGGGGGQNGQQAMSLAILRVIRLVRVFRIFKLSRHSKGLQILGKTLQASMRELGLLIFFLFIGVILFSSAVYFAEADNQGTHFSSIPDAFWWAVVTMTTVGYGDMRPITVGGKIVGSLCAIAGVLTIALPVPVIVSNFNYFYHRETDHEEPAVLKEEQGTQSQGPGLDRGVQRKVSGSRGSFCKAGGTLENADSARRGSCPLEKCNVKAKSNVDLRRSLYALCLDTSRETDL
row,IC50,Compound
1,9.6 µM,N#Cc1ccc(O[C@@H](c2ccnc3ccccc23)[C@H](c2ccc(F)cc2)N2CCCC2=O)cc1 (racemic) [Example 109]
2,3.8 µM,N#Cc1ccc(O[C@H](c2ccc(F)cc2)[C@H](c2ccc(F)cc2)N2CCCC2=O)cc1 (racemic) [Example 92]
3,0.9 µM,C=CO[C@H](c1ccc(F)c(F)c1)[C@H](c1ccc(F)cc1)N1CCCC1=O [Example 121]
4,1.4 µM,O=C1CCCN1[C@H](c1ccc(F)cc1)[C@H](OCCCC(F)(F)F)c1ccc(F)cc1 (racemic) [Example 43]
5,0.8 µM,O=C1CCCN1[C@@H](c1cccnc1)[C@H](OCC1CC1)c1ccc(F)cc1 (racemic) [Example 16]
6,0.2 µM,"O=C1CCCN1[C@H](c1ccc(F)cc1)[C@@H](OCC1CC1)c1cccc2ccccc12 (racemic) [Example 11, 1-[(1S′,2R′)-2-Cyclopropylmethoxy-1-(4-fluorophenyl)-2-naphthalen-1-ylethyl]pyrrolidin-2-one]"
7,5.6 µM,O=C1CCCN1[C@@H](c1ccc(F)cc1)[C@H](OCc1ccc(Cl)cc1)c1ccc(F)c(F)c1 (racemic) [Example 101]
8,0.6 µM,O=C1CCCN1[C@H](c1ccc(F)cc1)[C@H](OCC1CC1)c1ccc(F)cc1 (racemic) [Example 27]
9,1.2 µM,"CC(OCC1CC1)(c1ccccc1)C(c1ccccc1)N1CCCC1=O (stereo not drawn) [Example 8, 1-(2-Cyclopropylmethoxy-1,2-diphenylpropyl)pyrrolidin-2-one]"
10,1.1 µM,O=C1CCCN1[C@H](c1ccc(F)cc1)[C@@H](OCC1CC1)c1cccc2cccnc12 (racemic) [Example 39]
11,0.9 µM,O=C1CCCN1[C@@H](c1ccc(F)cc1)[C@H](OCC1CC1)c1ccc(OC(F)(F)F)cc1 (racemic) [Example 50]
12,1.9 µM,COc1ccc([C@@H](Oc2ccc(C#N)cc2)[C@H](c2ccc(F)cc2)N2CCCC2=O)cc1 (racemic) [Example 59]
13,1.3 µM,"O=C1CCCN1[C@@H](c1ccccn1)[C@H](OCC1CC1)c1ccccc1 (racemic) [Example 5, 1-[(1R′,2S′)-2-Cyclopropylmethoxy-2-phenyl-1-pyridin-2-ylethyl]pyrrolidin-2-one]"
14,~10 µM,N#Cc1ccc(O[C@H](c2ccc(F)c(F)c2)[C@H](c2ccc(F)cc2)N2CCCS2(=O)=O)cc1 (racemic) [Example 112]
15,2.1 µM,O=C1CCCN1[C@@H](c1ccccc1)[C@H](OCc1ccccc1)c1ccc(Cl)cc1 (racemic) [Example 72]
16,2.4 µM,O=C1CCCN1[C@@H](c1ccc(F)cc1)[C@@H](OCC1CC1)c1ccnc2ccccc12 (racemic) [Example 84]
17,~10 µM,N#Cc1ccc(OC(c2ccc(C#N)cc2)C(c2ccc(F)cc2)N2CCCC2=O)cc1 (stereo not drawn) [Example 113]
18,1.4 µM,"O=C1CCCCN1[C@@H](c1ccc(F)cc1)[C@@H](OCC1CC1)c1cccc2cccnc12 (racemic) [Example 1, 1-[(1R′,2S′)-2-Cyclopropylmethoxy-1-(4-fluorophenyl)-2-quinolin-8-ylethyl]-piperidin-2-one]"
19,2.3 µM,N#Cc1ccc(O[C@H](c2cccnc2)[C@H](c2cccc3cccnc23)N2CCCC2=O)cc1 (racemic) [Example 66]
20,0.5 µM,"O=C1CCCN1[C@@H](c1cccc2cccnc12)[C@H](OCC1CC1)c1ccc(F)cc1 (racemic) [Example 3, 1-[(1R′,2S′)-2-Cyclopropylmethoxy-2-(4-fluorophenyl)-1-quinolin-8-ylethyl]-pyrrolidin-2-one]"

row,IC50,Compound
1,5.1 µM,N#Cc1ccc(O[C@H](c2ccccc2)[C@H](c2ccccn2)N2CCCC2=O)cc1 (racemic) [Example 96]
2,6.3 µM,CO[C@H](c1ccc(F)c(F)c1)[C@H](c1ccc(F)cc1)N1CCCCC1=O (racemic) [Example 99]
3,0.45 µM,CCCO[C@@H](c1ccc(F)cc1)[C@H](c1ccccc1)N1CCCC1=O (racemic) [Example 25]
4,2 µM,O=S1(=O)CCCN1[C@H](c1ccccc1)[C@@H](OCC1CC1)c1ccccc1 [Example 52]
5,0.92 µM,"CCCO[C@@H](c1ccc(Cl)cc1)[C@@H](c1ccccc1)N1CCCC1=O (racemic) [Example 6, (1R′,2S′)-1-[2-(4-Chlorophenyl)-1-phenyl-2-propoxyethyl]pyrrolidin-2-one]"
6,0.65 µM,O=C1CCCN1[C@@H](c1ccc(F)cc1)[C@H](OCCCC(F)(F)F)C1CCCCC1 (racemic) [Example 24]
7,2.9 µM,COc1ccc(CO[C@H](c2cccnc2)[C@H](c2ccc(F)cc2)N2CCCC2=O)cc1 (racemic) [Example 86]
8,1 µM,COc1ccc([C@@H](OCC2CC2)[C@H](c2ccc(F)cc2)N2CCCC2=O)cc1 (racemic) [Example 73]
9,4.1 µM,CC1CCC(=O)N1[C@@H](c1ccc(F)cc1)[C@H](Oc1ccc(C#N)cc1)c1ccc(F)c(F)c1 (mixture of isomers) [Example 90]
10,4.4 µM,"N#Cc1ccc(O[C@@H](c2cccc3cccnc23)[C@H](c2ccc(F)cc2)N2CCCC2=O)cc1 (racemic) [Example 10, 4-[(1R′,2R′)-2-(4-Fluorophenyl)-2-(2-oxopyrrolidin-1-yl)-1-quinolin-8-ylethoxy]benzonitrile]"
11,0.8 µM,O=C1CCCN1[C@H](c1ccccc1)[C@H](OCC1CC1)c1ccc(F)cc1 (racemic) [Example 21]
12,0.9 µM,C[C@](c1ccccc1)([C@H](OCC1CC1)c1ccccc1)N1CCCC1=O (racemic) [Example 29]
13,1 µM,O=C1CCCN1[C@@H](c1ccc(F)cc1)[C@H](OCCCC(F)(F)F)c1ccc(F)c(F)c1 (racemic) [Example 34]
14,0.3 µM,Cc1ccc([C@H]([C@H](OCC2CC2)c2ccc(F)cc2)N2CCCC2=O)s1 (racemic) [Example 17]
15,1.83 µM,CCCO[C@H](c1ccccc1)[C@@H](c1ccccn1)N1CCCC1=O (racemic) [Example 64]
16,0.9 µM,CCCO[C@@H](c1ccc(Cl)cc1)[C@H](c1ccccc1)N1CCCC1=O (racemic) [Example 28]
17,0.7 µM,O=C1CCCN1[C@@H](c1ccc(F)cc1)[C@H](OCC1CC1)c1cc(F)cc(F)c1 (racemic) [Example 37]
18,1.1 µM,C#CCO[C@H](c1ccc(F)c(F)c1)[C@H](c1ccc(F)cc1)N1CCCCC1=O (racemic) [Example 30]
19,5.2 µM,COc1ccc(CO[C@H](c2ccc(F)cc2)[C@@H](c2ccccc2)N2CCCC2=O)cc1 (racemic) [Example 95]
20,0.8 µM,O=C1CCCCN1[C@@H](c1ccc(F)cc1)[C@H](OCCCC(F)(F)F)c1cccnc1 (racemic) [Example 118]

row,IC50,Compound
1,4.6 µM,N#Cc1ccc(OC(c2ccnc3ccccc23)C(c2ccc(F)cc2)N2CCCC2=O)cc1 (stereo not drawn) [Example 105]
2,0.3 µM,CCCO[C@H](c1ccc(F)cc1)[C@H](c1ccccc1)N1CCCC1=O (racemic) [Example 20]
3,1.8 µM,O=C1CCCN1[C@@H](c1ccc(F)cc1)[C@H](OCC1CC1)C1CCCCC1 (racemic) [Example 83]
4,5.4 µM,O=C1CCCN1[C@@H](c1cccnc1)[C@H](OCc1ccc(Cl)cc1)c1ccc(F)c(F)c1 (racemic) [Example 100]
5,0.7 µM,C#CCO[C@H](c1ccc(F)c(F)c1)[C@H](c1ccc(F)cc1)N1CCCC1=O (racemic) [Example 38]
6,6.7 µM,O=C1CCCN1[C@@H](c1ccccn1)[C@H](OCCF)c1ccccc1 (racemic) [Example 104]
7,3.5 µM,N#Cc1ccc(O[C@@H](c2cccc3ccccc23)[C@H](c2ccc(F)cc2)N2CCCC2=O)cc1 (racemic) [Example 89]
8,3.3 µM,CO[C@H](C1CCCCC1)[C@H](c1ccc(F)cc1)N1CCCC1=O (racemic) [Example 78]
9,9.7 µM,COc1ccc([C@@H](Oc2ccc(C(C)=O)cc2)[C@H](c2ccc(F)cc2)N2CCCC2=O)cc1 (racemic) [Example 110]
10,0.8 µM,CCCCO[C@H](c1ccc(Cl)cc1)[C@H](c1ccccc1)N1CCCC1=O (racemic) [Example 56]
11,3.2 µM,COc1ccc(CO[C@H](c2ccc(F)c(F)c2)[C@H](c2cccnc2)N2CCCC2=O)cc1 (racemic) [Example 81]
12,0.9 µM,CCCO[C@H](c1ccc(F)cc1)[C@@H](c1ccc(F)cc1)N1CCCC1=O (racemic) [Example 33]
13,1 µM,O=C1CCCN1[C@@H](c1ccccc1)[C@H](OCc1ccc(Cl)cc1)c1ccc(Cl)cc1 (racemic) [Example 57]
14,1.1 µM,N#Cc1ccc(O[C@H](c2ccc(F)cc2)[C@H](c2cccc3cccnc23)N2CCCC2=O)cc1 (racemic) [Example 55]
15,0.21 µM,CCCO[C@H](c1ccc(Cl)cc1)[C@H](c1ccccc1)N1CCCCC1=O (racemic) [Example 13]
16,~10 µM,O=C1CCCN1[C@@H](c1ccc(F)cc1)[C@H](Oc1ccccn1)c1ccc(F)c(F)c1 (racemic) [Example 114]
17,4.2 µM,CO[C@H](c1ccc(F)c(F)c1)[C@H](c1ccc(F)cc1)N1CCCC1=O (racemic) [Example 87]
18,0.5 µM,O=C1CCCN1[C@@H](c1ccccc1)[C@H](OCCCC(F)(F)F)c1ccc(Cl)cc1 (racemic) [Example 22]
19,0.6 µM,"O=C1CCCN1[C@@H](c1ccccc1)[C@H](OC1CC1)c1ccccc1 (racemic) [Example 32, 1S,2R-1-(Cyclopropoxy-1,2-diphenylethyl)pyrrolidin-2-one]"

row,Compound,IC50
1,O=C1CCCCN1[C@H](c1ccccc1)[C@@H](OCC1CC1)c1ccccc1 [Example 74],1.4 µM
